Results: patent US20100040568A1, “Steroidal compounds as melanogenesis modifiers and uses thereof” (SkinMedica, Inc., priority 2008, published 2010)

Experiments:
[1] = test system: melan-a cells; test: Melanin assay in cultured murine melanocytes (melan-a); format: cell-based; settings: 72 hours; for % of control remaining @ 1 μM / % of control remaining @ 5 μM: melanin, melan-a cells
Method: The Spectrum Collection library consisting of 2000 drug compounds or natural products was screened to identify novel pigmentation inhibitors or stimulators in cultured murine melanocytes (melan-a). Compounds were dissolved in dimethylsulfoxide (DMSO) to a final concentration of 10 mM. Screening was performed with cultured melanocytes in 24-well plates followed by melanin assay (see below). A minimum change of 50% in melanin formation was established as significant for a pigmentation inhibitor or stimulator. DMSO was used as a negative control and the widely used depigmenting agent, hydroquinone, was used as a positive control on every plate. […] Melan-a cells were plated at 5×10^4 cells per well in 1 ml of culture media in 24-well plates the day before adding the library compounds. All compounds were added at the indicated final concentrations. Cells were harvested after 72 hours of incubation, and melanin assay was performed. For the primary and secondary screening, cells were harvested and dissolved in 200 μl of 2N NaOH in 20% DMSO at 70° C. A 180-μl aliquot of the resulting solution was measured for absorbance at 490 nm. Cells are harvested in extraction buffer (1% Triton X-100, 50 mM Tris, 2 mM EDTA, 150 mM NaCl, pH 7.5) containing a complete protease inhibitor cocktail (Roche). The lysates were centrifuged at 14,000 rpm for 10 minutes at 4° C. BCA protein assay kit (Pierce) was used to measure the protein concentrations of the supernatants, and bovine serum albumin was used as a standard. […] A 180-μl aliquot of the resulting solution was measured for absorbance at 490 nm. The melanin contents were normalized to the total amount of protein. The IC50 value for inhibition of cellular melanin synthesis for conessine was determined by culturing melan-a cells with various concentrations of conessine for 72 hours. Briefly, melan-a cells were plated at 5×10^4 cells per well in 1 ml of culture media in 24-well plates the day before adding conessine. Conessine was added at the indicated final concentrations. DMSO was used as a negative control. Cells were harvested after 72 hours of incubation, and spectrophotometric melanin assay was performed on cell pellets. The melanin contents were normalized to the total amount of protein. Cell viability was determined by using the CellTiter 96 aqueous nonradioactive cell proliferation assay. […] Licorice extract was tested under similar conditions as conessine for its ability to decrease melanin synthesis in melan-a cells (FIG. 11c). Melan-a cells were plated at 5×10^4 cells per well in 1 ml of culture media in 24-well plates the day before adding Licorice extract. 70% ethanol was used as control and the Licorice extract was diluted in cell culture media at the indicated concentrations. […] Cells were harvested after 72 hours of incubation, and spectrophotometric melanin assay was performed on cell pellets. The melanin contents were normalized to the total amount of protein. Cell viability was determined by using the CellTiter 96 aqueous nonradioactive cell proliferation assay.

[2] = test system: UV-induced pigmentation; settings: topical application of 0.5%; cited from earlier work

Structure (SMILES)	% of control remaining @ 1 μM [1]	% of control remaining @ 5 μM [1]	inhibition of UV-induced pigmentation [2]	effect on melanin synthesis in melan-a cells ([1]; indicated concentrations)
C[C@H]1C2CCC3[C@@H]4CC=C5C[C@@H](N(C)C)CC[C@]5(C)C4CC[C@@]32CN1C (mixture of isomers) [Compound 2, Con-5-enine, 3β-(dimethylamino)-, (±)-(8Cl) (Registry No: 14546-12-4)]	78.4 % of control	38.5 % of control	–	–
CC1C2CCC3C4CC=C5CC(N(C)C)CCC5(C)C4CCC32CN1C (stereo not drawn) [Compound 3, N,N-Dimethylcon-5-enin-3-amine]	59.2 % of control	28.4 % of control	–	–
CC1(C)C=Cc2c(ccc3c2OC[C@@H](c2ccc(O)cc2O)C3)O1 [glabridin]	–	–	can inhibit the UV-induced pigmentation	–
Oc1ccc(O)cc1 [hydroquinone, reference compound]	–	–	–	significantly inhibited melanogenesis in a dose-dependent manner
